Test results published in ChEMBL document CHEMBL1777674, “2,6-Disubstituted pyrazines and related analogs as NR2B site antagonists of the NMDA receptor with anti-depressant activity” (Bioorg Med Chem Lett, 2011).
Converted amounts (≈) assume the structure as drawn.

What was measured:
[1] = Equilibrium solubility of the compound at pH 7.4; assay type: physicochemical; conditions: buffer
[2] = Intrinsic clearance in human liver microsomes; assay type: ADME, Microsome
[3] = Plasma concentration in mouse at 10 mg/kg, ip after 30 mins; assay type: ADME, organism-based; design: dose 10 mg/kg, route intraperitoneal
[4] = Plasma concentration in mouse at 30 mg/kg, ip after 30 mins; assay type: ADME, organism-based; design: dose 30 mg/kg, route intraperitoneal
[5] = Plasma concentration in mouse at 60 mg/kg, ip after 30 mins; assay type: ADME, organism-based; design: dose 60 mg/kg, route intraperitoneal
[6] = Ratio of drug level in brain to plasma in mouse at 10 mg/kg, ip after 30 mins; assay type: ADME, organism-based; design: dose 10 mg/kg, route intraperitoneal; conditions: read-out: BPR
[7] = Ratio of drug level in brain to plasma in mouse at 30 mg/kg, ip after 30 mins; assay type: ADME, organism-based; design: dose 30 mg/kg, route intraperitoneal; conditions: read-out: BPR
[8] = Ratio of drug level in brain to plasma in mouse at 60 mg/kg, ip after 30 mins; assay type: ADME, organism-based; design: dose 60 mg/kg, route intraperitoneal; conditions: read-out: BPR

Row | SMILES | solubility thermodynamic [1] [µM] | microsomal CLint [2] [µL/min/mg] | concentration at 0.5 h [3] [nM] | concentration at 0.5 h [4] [nM] | concentration at 0.5 h [5] [nM] | Kp at 0.5 h [6] | Kp at 0.5 h [7] | Kp at 0.5 h [8]
1 | COc1cc(F)ccc1-c1cncc(CNCC2CC2)n1 | 340 (≈ 97.7 µg/mL) | 108 |  |  |  |  |  | 
2 | C[C@@H]([C@@H](O)c1ccc(O)cc1)N1CCC(O)(c2ccccc2)CC1 [TRAXOPRODIL] | > 470 | 37 |  |  |  |  |  | 

Other lines, results leading:

Row | solubility thermodynamic [1] [µM] | microsomal CLint [2] [µL/min/mg] | concentration at 0.5 h [3] [nM] | concentration at 0.5 h [4] [nM] | concentration at 0.5 h [5] [nM] | Kp at 0.5 h [6] | Kp at 0.5 h [7] | Kp at 0.5 h [8] | SMILES
3 | > 450 | 74 | 867 | 2320 | 3370 | 10.9 | 13.6 | 12.6 | COc1cc(F)ccc1-c1cncc(CNC2CCCC2)c1
4 | 63 (≈ 21.3 µg/mL) | 64 |  |  |  |  |  |  | COc1cc(F)ccc1-c1cncc(CNC(=O)c2cnccn2)c1
5 |  | 45 |  |  |  |  |  |  | COc1cc(F)ccc1-c1cncc(CNC(=O)c2ccccn2)c1
